# Measurements reported in patent US20130225508A1, “PEPTIDE CAPABLE OF BINDING TO IMMUNOGLOBULIN” (priority 2010, published 2013).
# How the values were obtained:
# Arthus reaction = assay: Type III allergic (Arthus) reaction-induced rat model, dye leakage; type: in vivo, Slc:Wistar rats; details: 50 mg/kg intraperitoneal; mean±SD
# Protocol: Using forty-two 7-week-old male Slc:Wistar rats, examinations were made on test substance VII-2, with each of intraperitoneal administration and intravenous administration into tail vain. Acclimation was carried out by giving normal solid chow CRF-1 for a period of 6 days or longer. On the day prior to administration, the back of each animal was shaved. On the day of administration, a mixed solution of egg-white Ovalbumin (MP Biomedicals) (hereinafter referred to as “OVA”) and Evans blue dye was administered into the tail vein. […] The amount of dye leakage was quantified by measuring absorbance for the Evans blue dye with a spectrophotometer and using a calibration curve. […]
# Several cuttings were made in the skin strips that had been punched out with a punch. […] The amount of dye leakage was calculated from a calibration curve of known amounts of the dye.
# The mean value (mean)±standard deviation (SD) for each of the groups was calculated with respect to body-weight measurements and amounts of dye leakage. For amounts of dye leakage, the value for each of the animals was determined by subtracting the mean of the values obtained for the two sites of PBS administration from the mean of the values obtained for the two sites of administration of the anti-OVA solution. […]
# IL-1β in plasma = IL-1β in plasma of adjuvant arthritis rats (ELISA); type: in vivo, rat; details: day 21 post-adjuvant; 10 mg/kg oral from day 10
# Protocol: (§1) TNF-α and IL-1β in plasma were measured in a double-point method using the TNF-α ELISA kit (Lbis® TNF-α-rat) and the IL-1β ELISA kit (Quantikine® Rat IL-1β/IL-1F2).
# (§2) On day 21 post-adjuvant, the animals were subjected to autopsy, and plasma was prepared to measure IL-1β and TIN-α concentrations in plasma. In all the groups for which measurements were made, the concentration of TNF-α was below the detection limit (8 pg/mL).
# TNF-α in plasma = TNF-α in plasma of adjuvant arthritis rats (ELISA); type: in vivo, rat; details: day 21 post-adjuvant; 10 mg/kg oral from day 10
# Protocol: as §1, §2
# [1] = tested on: adjuvant-induced arthritis; assay: Adjuvant arthritis rat model; type: in vivo, Lewis/CrlCrlj rats; set-up: key to Redness scores (left hind-limb) / Redness scores (right hind-limb): 0 = no redness, 4 = severe redness; key to Scores of swelling in the instep (left hind-limb) / Scores of swelling in the instep (right hind-limb): 0 = no swelling, 4 = severe swelling; key to Scores of swelling in knuckle joints (left hind-limb) / Scores of swelling in knuckle joints (right hind-limb): 0 = no swelling, 4 = swelling of all the digits; details: 10 mg/kg oral from day 10
# Excerpt: Male Lewis/CrlCrlj (SPF) rats were used to investigate the arthritis suppressing effect of a peptide of the present invention on adjuvant-induced arthritis. Forty-five rats were purchased from Charles River Laboratories Japan, Inc., and fed normal chow and allowed to acclimate for 7 days before used (the range of body weights was from 193.3 to 218.3 g at the beginning of use).
# In an agate motor, dead tubercle bacilli (Mycobacterium butyricum; Lot No. 0260570, Difco) were pulverized. Then, liquid paraffin was added in small amounts to spread the pulverized bacilli well, so as to allow them to be emulsified at 1.0 mg/mL. The resultant emulsion was used after verification to ensure that the pulverized bacilli had been allowed to be finely emulsified, using an NM MICRONIZER (Nippon Seiki Co., Ltd.).
# A right hind-limb of the respective rats was exposed, and 100 μL of the emulsion was intradermally injected once into a footpad of the right hind-limb using a 25G-needle attached syringe, to cause arthritis (day 0).
# Each of the groups was comprised of 5 animals.
# Arthritis was evaluated only for the hind-limbs, based on the criteria described below:
# Score 0: no swelling Score 1: swelling of not more than two digits Score 2: swelling of three digits Score 3: swelling of four digits Score 4: swelling of all the digits
# Score 0: no swelling Score 1: mild swelling Score 2: modest swelling Score 3: rather severe swelling Score 4: severe swelling
# Score 0: no redness Score 1: mild redness Score 2: modest redness Score 3: rather severe redness Score 4: severe redness (iii) Measurement of Foot Volumes of Left And Right Hind-Limbs
# Measurement was performed using a plethysmometer (UNICOM TK105). The increasing rate foot volume (percentage of paw swelling, paw swelling %) was calculated by the following formula:
# Percent paw swelling (%)=[(Vt−Vo)/Vo]×100
# In addition, in these examinations, the percent change of edema relative to day 10 post-adjuvant was calculated, in order to assess the effect of treatment with the test substances.
# Data are expressed by mean±standard error. Since the uniformity of variance was not verified in testing between the negative and the positive control groups, testing for significant difference was performed by Aspin-Welch t-test. Since the uniformity of variance was not verified in testing for significant differences of the respective test-substance administered groups relative to the positive control group, assessment was performed by Dunnett's multiple comparison test after Kruskal-Wallis testing, using non-parametric procedures. Differences were considered to be statistically significant at p values of less than 0.05.
compound,measurement,setting,value
C[C@]12CCC(=O)C=C1CC[C@@H]1[C@@H]2[C@@H](O)C[C@@]2(C)[C@H]1CC[C@]2(O)C(=O)CO [Hydrocortisone],amount of dye leakage (Evans blue),Arthus reaction,5.665±0.674 μg/animal
Cc1oncc1C(=O)Nc1ccc(C(F)(F)F)cc1 [Reflumide],Concentrations of IL-1β in plasma,IL-1β in plasma,13.0 ± 2.5 pg/mL
same,Concentrations of TNF-α in plasma,TNF-α in plasma,N.D (N.D.: below detection limit)
same,Percent increase in foot volume relative to pre-adjuvant (left hind-limb),[1]; Day 0 post-adjuvant,0.00 ± 0.0%
same,Percent increase in foot volume relative to pre-adjuvant (right hind-limb),[1]; Day 0 post-adjuvant,0.00 ± 0.0%
same,Redness scores (left hind-limb),[1]; Day 0 post-adjuvant,0.0 ± 0.0
same,Redness scores (right hind-limb),[1]; Day 0 post-adjuvant,0.0 ± 0.0
same,Scores of swelling in knuckle joints (left hind-limb),[1]; Day 0 post-adjuvant,0.0 ± 0.0
same,Scores of swelling in knuckle joints (right hind-limb),[1]; Day 0 post-adjuvant,0.0 ± 0.0
same,Scores of swelling in the instep (left hind-limb),[1]; Day 0 post-adjuvant,0.0 ± 0.0
same,Scores of swelling in the instep (right hind-limb),[1]; Day 0 post-adjuvant,0.0 ± 0.0
same,Total scores (left hind-limb),[1]; Day 0 post-adjuvant,0.0 ± 0.0
same,Total scores (right hind-limb),[1]; Day 0 post-adjuvant,0.0 ± 0.0
same,Percent increase in foot volume relative to pre-adjuvant (left hind-limb),[1]; Day 3 post-adjuvant,13.28 ± 0.4%
same,Percent increase in foot volume relative to pre-adjuvant (right hind-limb),[1]; Day 3 post-adjuvant,13.33 ± 0.4%
same,Redness scores (left hind-limb),[1]; Day 3 post-adjuvant,0.0 ± 0.0
same,Redness scores (right hind-limb),[1]; Day 3 post-adjuvant,0.0 ± 0.0
same,Scores of swelling in knuckle joints (left hind-limb),[1]; Day 3 post-adjuvant,0.0 ± 0.0
same,Scores of swelling in knuckle joints (right hind-limb),[1]; Day 3 post-adjuvant,0.0 ± 0.0
same,Scores of swelling in the instep (left hind-limb),[1]; Day 3 post-adjuvant,0.0 ± 0.0
same,Scores of swelling in the instep (right hind-limb),[1]; Day 3 post-adjuvant,0.0 ± 0.0
same,Total scores (left hind-limb),[1]; Day 3 post-adjuvant,0.0 ± 0.0
same,Total scores (right hind-limb),[1]; Day 3 post-adjuvant,0.0 ± 0.0
same,Percent increase in foot volume relative to pre-adjuvant (left hind-limb),[1]; Day 7 post-adjuvant,18.56 ± 3.3%
same,Percent increase in foot volume relative to pre-adjuvant (right hind-limb),[1]; Day 7 post-adjuvant,26.75 ± 1.4%
same,Redness scores (left hind-limb),[1]; Day 7 post-adjuvant,0.4 ± 0.2
same,Redness scores (right hind-limb),[1]; Day 7 post-adjuvant,0.6 ± 0.2
same,Scores of swelling in knuckle joints (left hind-limb),[1]; Day 7 post-adjuvant,0.4 ± 0.2
same,Scores of swelling in knuckle joints (right hind-limb),[1]; Day 7 post-adjuvant,0.2 ± 0.2
same,Scores of swelling in the instep (left hind-limb),[1]; Day 7 post-adjuvant,0.4 ± 0.2
same,Scores of swelling in the instep (right hind-limb),[1]; Day 7 post-adjuvant,1.0 ± 0.0
same,Total scores (left hind-limb),[1]; Day 7 post-adjuvant,1.2 ± 1.6
same,Total scores (right hind-limb),[1]; Day 7 post-adjuvant,1.8 ± 0.5
same,Percent increase in foot volume relative to pre-adjuvant (left hind-limb),[1]; Day 10 post-adjuvant,22.94 ± 3.6%
same,Percent increase in foot volume relative to pre-adjuvant (right hind-limb),[1]; Day 10 post-adjuvant,49.75 ± 15.8%
same,Redness scores (left hind-limb),[1]; Day 10 post-adjuvant,0.8 ± 0.4
same,Redness scores (right hind-limb),[1]; Day 10 post-adjuvant,1.2 ± 0.2
same,Scores of swelling in knuckle joints (left hind-limb),[1]; Day 10 post-adjuvant,1.4 ± 0.4
same,Scores of swelling in knuckle joints (right hind-limb),[1]; Day 10 post-adjuvant,1.6 ± 0.6
same,Scores of swelling in the instep (left hind-limb),[1]; Day 10 post-adjuvant,0.6 ± 0.4
same,Scores of swelling in the instep (right hind-limb),[1]; Day 10 post-adjuvant,1.4 ± 0.4
same,Total scores (left hind-limb),[1]; Day 10 post-adjuvant,2.8 ± 1.4
same,Total scores (right hind-limb),[1]; Day 10 post-adjuvant,4.2 ± 1.5
same,Percent increase in foot volume relative to day 10 post-adjuvant (left hind-limb),[1]; Day 14 post-adjuvant,−2.2 ± 1.6%
same,Percent increase in foot volume relative to day 10 post-adjuvant (right hind-limb),[1]; Day 14 post-adjuvant,−1.3 ± 2.9^ %
same,Percent increase in foot volume relative to pre-adjuvant (left hind-limb),[1]; Day 14 post-adjuvant,20.13 ± 3.2%
same,Percent increase in foot volume relative to pre-adjuvant (right hind-limb),[1]; Day 14 post-adjuvant,46.22 ± 10.7%
same,Redness scores (left hind-limb),[1]; Day 14 post-adjuvant,0.4 ± 0.2
same,Redness scores (right hind-limb),[1]; Day 14 post-adjuvant,1.2 ± 0.2
same,Scores of swelling in knuckle joints (left hind-limb),[1]; Day 14 post-adjuvant,0.6 ± 0.4
same,Scores of swelling in knuckle joints (right hind-limb),[1]; Day 14 post-adjuvant,1.4 ± 0.4
same,Scores of swelling in the instep (left hind-limb),[1]; Day 14 post-adjuvant,0.2 ± 0.2
same,Scores of swelling in the instep (right hind-limb),[1]; Day 14 post-adjuvant,1.2 ± 0.2
same,Total scores (left hind-limb),[1]; Day 14 post-adjuvant,1.2 ± 1.0
same,Total scores (right hind-limb),[1]; Day 14 post-adjuvant,3.8 ± 1.0
same,Percent increase in foot volume relative to day 10 post-adjuvant (left hind-limb),[1]; Day 17 post-adjuvant,1.2 ± 6.3%
same,Percent increase in foot volume relative to day 10 post-adjuvant (right hind-limb),[1]; Day 17 post-adjuvant,−3.4 ± 2.8%
same,Percent increase in foot volume relative to pre-adjuvant (left hind-limb),[1]; Day 17 post-adjuvant,24.18 ± 7.7%
same,Percent increase in foot volume relative to pre-adjuvant (right hind-limb),[1]; Day 17 post-adjuvant,43.17 ± 11.2%
same,Redness scores (left hind-limb),[1]; Day 17 post-adjuvant,0.6 ± 0.6
same,Redness scores (right hind-limb),[1]; Day 17 post-adjuvant,0.8 ± 0.2
same,Scores of swelling in knuckle joints (left hind-limb),[1]; Day 17 post-adjuvant,0.6 ± 0.4
same,Scores of swelling in knuckle joints (right hind-limb),[1]; Day 17 post-adjuvant,0.0 ± 0.0
same,Scores of swelling in the instep (left hind-limb),[1]; Day 17 post-adjuvant,0.2 ± 0.2
same,Scores of swelling in the instep (right hind-limb),[1]; Day 17 post-adjuvant,1.2 ± 0.2
same,Total scores (left hind-limb),[1]; Day 17 post-adjuvant,1.4 ± 1.5
same,Total scores (right hind-limb),[1]; Day 17 post-adjuvant,2.0 ± 0.0
same,Percent increase in foot volume relative to day 10 post-adjuvant (left hind-limb),[1]; Day 21 post-adjuvant,−1.4 ± 6.1%
same,Percent increase in foot volume relative to day 10 post-adjuvant (right hind-limb),[1]; Day 21 post-adjuvant,−5.9 ± 4.1%
same,Percent increase in foot volume relative to pre-adjuvant (left hind-limb),[1]; Day 21 post-adjuvant,20.93 ± 7.3%
same,Percent increase in foot volume relative to pre-adjuvant (right hind-limb),[1]; Day 21 post-adjuvant,38.93 ± 9.5%
same,Redness scores (left hind-limb),[1]; Day 21 post-adjuvant,0.6 ± 0.6
same,Redness scores (right hind-limb),[1]; Day 21 post-adjuvant,1.4 ± 0.4
same,Scores of swelling in knuckle joints (left hind-limb),[1]; Day 21 post-adjuvant,0.4 ± 0.4
same,Scores of swelling in knuckle joints (right hind-limb),[1]; Day 21 post-adjuvant,0.6 ± 0.6
same,Scores of swelling in the instep (left hind-limb),[1]; Day 21 post-adjuvant,0.4 ± 0.4
same,Scores of swelling in the instep (right hind-limb),[1]; Day 21 post-adjuvant,1.4 ± 0.4
same,Total scores (left hind-limb),[1]; Day 21 post-adjuvant,1.4 ± 1.8
same,Total scores (right hind-limb),[1]; Day 21 post-adjuvant,3.4 ± 1.8
